From US12458688B2, “Epitopes” (Scancell Limited, priority 2018, dated 2025)
Where no end group is shown, it is not given here. [ ]: non-standard residue; d: D form. hCit = NC(=O)NCCCC[C@H](N)C(=O)O

Tests used:
HLA transgenic mice = assay: T cell response to Hcit peptides in HLA transgenic mice (screening, ex vivo ELISpot); parameters: species or system mouse; settings: yes/no; Hcit peptide with CpG/MPLA
Procedure: (§1) C57BL/6 mice (Charles River, UK), HLA-DR4 mice (Model #4149, Taconic, USA), HLA-A2/DR1 (HHDII/DR1, Pasteur Institute), HLA-A2.1+/+HLA-DP4+/+hCD4+/+ (HLA-HHDII/DP4) transgenic mice (EM: 02221, European Mouse Mutant Archive) described in patent WO2013/017545 A1 (EMMA repository, France) were used, aged between 8 and 12 weeks. Peptides were dissolved in PBS to 1 mg/ml and then emulsified (a series of dilutions) with CpG ODN 1826 and MPLA 6 μg/mouse of each (Invivogen, UK). Peptides (25 μg/mouse) were injected subcutaneously at the base of the tail. Mice were immunised at days 1, 7 and 14 for peptide immunisation. Spleens were removed for analysis at day 21 unless stated otherwise.
(§2) ELISpot assays were performed using murine IFNγ, IL-17 and IL-10 capture and detection reagents according to the manufacturer's instructions (Mabtech, Sweden). In brief, anti-IFNγ, IL-17 and IL-10 specific antibodies were coated onto wells of 96-well Immobilin-P plate. Synthetic peptides (at various concentrations) and 5×10^5 per well splenocytes were added to wells of the plate in quadruplicate Tumour target cells were added where relevant at 5×10^4/well in triplicate and plates incubated for 40 hrs at 37° C. After incubation, captured IFNγ, IL-10 and IL-17 were detected by biotinylated anti-IFNγ, IL-10 and IL-17 antibodies and developed with a streptavidin alkaline phosphatase and chromogenic substrate. Lipopolysaccharide (LPS; 5 μg/ml) was used as a positive control. For MHC blocking studies, anti-CD4 blocking antibody (GK1.5) or anti-CD4 blocking antibody (RPA-T4) for HHDII/DP4 mice which express human CD4 and anti-CD8 blocking antibody (2.43) from Bioxcell were used at 20 μg/ml. Spots were analysed and counted using an automated plate reader (Cellular Technologies Ltd).
(§3) Screening was performed to identify potential homocitrullinated vimentin epitopes in mice. Mice were immunised with pools of homocitrullinated peptides. […] Each pool was administered as three immunisations containing 20 μg of each peptide and CpG/MPLA as an adjuvant on day 1, 8 and 15. On day 21 the mice were culled and the immune responses to each peptide within the immunising pool were assessed by ex vivo ELISpot. Given that different mouse strains have different MHC repertoires a number of strains were used for screening. Peptide responses were assessed in transgenic strains expressing human DR4 or HHDII/DR1 in a C57BL/6 background (see methods).
Screening was performed to identify potential homocitrullinated ALDOA epitopes in transgenic HHDII/DP4 and HHDII/DR1 mice. Mice were immunised with pools of human homocitrullinated peptides. […] Each pool was administered as three immunisations containing 20 μg of each peptide and CpG/MPLA as an adjuvant. After 21 days the mice were culled and the immune responses to each peptide within the immunising pool were assessed by ex vivo ELISpot in HHDII/DP4 (FIG. 4b) and HHDII/DR1 mice (FIG. 4d).
Using this combination of predictions, 5 CyK8 peptides containing homocitrulline were synthesised (Table 4). Screening was performed to identify potential homocitrullinated Cyk8 epitopes in transgenic HHDII/DP4. Mice were immunised with pools of human homocitrullinated peptides. […] Each pool was administered as three immunisations containing 20 μg of each peptide and CpG/MPLA as an adjuvant. After 21 days the mice were culled and the immune responses to each peptide within the immunising pool were assessed by ex vivo ELISpot in HHDII/DP4 (FIG. 10a).

HLA-HHDII/DP4 mice = assay: Ex vivo IFNγ ELISpot after peptide immunisation, HHDII/DP4 mice; format: in vivo, mouse; settings: for IFNγ ELISpot response: 3 immunisations with CpG/MPLA, day 21
How it was run: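 HHDII/DP4 mice immunised s.c. at tail base on days 1, 7 and 14 with peptide (25 μg/mouse, or 20 μg each in pools) plus CpG ODN 1826 and MPLA (6 μg/mouse each); spleens taken day 21. Splenocytes (5×10^5/well) restimulated with peptide 40 h at 37° C; IFNγ spots counted.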

HLA-DR4 mice = assay: Ex vivo IFNγ ELISpot after peptide immunisation, HLA-DR4 mice; format: in vivo, mouse; settings: for IFNγ ELISpot response: 3 immunisations with CpG/MPLA, day 21
Procedure: as §1, §2, §3

HLA-HHDII/DR1 mice = assay: Ex vivo IFNγ ELISpot after peptide immunisation, HHDII/DR1 mice; format: in vivo, mouse; settings: for IFNγ ELISpot response: 3 immunisations with CpG/MPLA, day 21

| Substance | T cell response (HLA transgenic mice) | IFNγ ELISpot response (HLA-HHDII/DP4 mice) | IFNγ ELISpot response (HLA-DR4 mice) | IFNγ response in presence of CD4 blocking antibody (HLA-HHDII/DP4 mice) | cross reactivity of Hcit response to wt peptide (HLA-HHDII/DP4 mice) | IFNγ response in presence of CD4 blocking antibody (HLA-HHDII/DR1 mice) | IFNγ response in presence of CD8 blocking antibody (HLA-HHDII/DR1 mice) | cross reactivity of Hcit response to wt peptide (HLA-HHDII/DR1 mice) | IFNγ ELISpot response (HLA-HHDII/DR1 mice) | IFNγ response in presence of CD8 blocking antibody (HLA-HHDII/DP4 mice) | IFNγ response in presence of CD4 blocking antibody (HLA-DR4 mice) | IFNγ response in presence of CD8 blocking antibody (HLA-DR4 mice) | cross reactivity of Hcit response to wt peptide (HLA-DR4 mice) |
| --- | --- | --- | --- | --- | --- | --- | --- | --- | --- | --- | --- | --- | --- |
| EIN-hcit-RTEMENEFVLI-hcit-hcit-DVDE (EIN[hCit]RTEMENEFVLI[hCit][hCit]DVDE) [Cyk8 182-202 Hcit] | Yes | stimulation of IFNγ responses | – | – | – | – | – | – | – | – | – | – | – |
| HACTQ-hcit-FSH(N)EEIAMATVTA (HACTQ[hCit]FSHNEEIAMATVTA; not fully specified; printed as HACTQ-hcit-FSH(N)EEIAMATVTA) [Aldolase A 238-256 Hcit] | yes | stimulation of IFNγ responses | – | – | – | – | – | – | – | – | – | – | – |
| IGGVILFHETLYQ-hcit-ADDGRP (IGGVILFHETLYQ[hCit]ADDGRP) [Aldolase A 74-93 Hcit] | yes | stimulation of IFNγ responses | No responses were seen | significantly reduced | limited responses | – | – | – | – | – | – | – | – |
| KFASFID-Hcit-VRFLEQQN-Hcit-MLE (KFASFID[hCit]VRFLEQQN[hCit]MLE) [Cyk8 101-120 Hcit] | Yes | stimulation of IFNγ responses | – | inhibited | – | – | – | – | – | – | – | – | – |
| LEQQN-hcit-MLET-hcit-WSLLQQQ-hcit-T (LEQQN[hCit]MLET[hCit]WSLLQQQ[hCit]T) [Cyk8 112-131 Hcit] | Yes | stimulation of IFNγ responses | – | not with CD4 blocking antibody | significantly higher | less effect | lost | minimal cross reactivity | Significant responses | inhibited | – | – | – |
| LREYQELMNV-hcit-LALDIEI (LREYQELMNV[hCit]LALDIEI) [Cyk8 371-388 Hcit] | Yes | – | – | inhibited | significantly higher | lost | not with the CD8 blocking antibody | minimal cross reactivity | Significant responses | – | – | – | – |
| NYID-Hcit-VRFLEQQN-Hcit-ILLAEL (NYID[hCit]VRFLEQQN[hCit]ILLAEL) [Vimentin 116-135 Hcit] | yes | no IFNγ responses were observed | significant response | – | – | significantly decreased | not in the presence of the CD8 blocking antibody | no cross reactivity | significant response | – | significantly decreased | not in the presence of the CD8 blocking antibody | no cross reactivity |
| hcit-DGADFA-hcit-WRCVL-hcit-IGEH ([hCit]DGADFA[hCit]WRCVL[hCit]IGEH) [Aldolase A 140-157 Hcit] | yes | stimulation of IFNγ responses | No responses were seen | significantly reduced | limited responses | – | – | significantly higher | stimulated responses | – | – | – | – |
| hcit-LALDIEIATYR-hcit-LLEGEE ([hCit]LALDIEIATYR[hCit]LLEGEE) [Cyk8 381-399 Hcit] | Yes | stimulation of IFNγ responses | – | – | significantly higher | – | – | – | – | – | – | – | – |
